Tests used:
Conditions in all cases: exposure time: 72 h
E21 [1] = patient-derived glioblastoma stem cells of mesenchymal subtype; assay: surviving fraction (nuclei count normalised to DMSO); higher = more cells surviving (less toxic)
E57 [2] = patient-derived glioblastoma stem cells of mesenchymal subtype; assay: as above
FT3469 [3] = normal neural stem cell line; assay: as above
E31 [4] = patient-derived glioblastoma stem cells of proneural subtype; assay: as above
E28 [5] = patient-derived glioblastoma stem cells of classical subtype; assay: as above
E13 [6] = patient-derived glioblastoma stem cells of classical subtype; assay: as above
E34 [7] = patient-derived glioblastoma stem cells of proneural subtype; assay: as above
E21 [8] = assay: phenotypic distance (Euclidean, principal components) from DMSO controls (arbitrary units); higher = stronger morphological change
E57 [9] = assay: as above
FT3469 [10] = assay: as above
E31 [11] = assay: as above
E28 [12] = assay: as above
E13 [13] = assay: as above
E34 [14] = assay: as above
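Wherever phenotypic distance (Euclidean, principal components) from DMSO controls is given: cell Painting imaging in 384-well plates, CellProfiler features reduced to at least 20 principal components, Euclidean distance versus same-plate DMSO vehicle wells (0.1% v/v), median over six images per well.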
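Wherever surviving fraction (nuclei count normalised to DMSO) is given: nuclei counted by high-content imaging of Hoechst-stained cells in laminin-coated 384-well plates, relative to 0.1% DMSO vehicle wells, with staurosporine as cell-death control.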

CCn1cc(C(=O)O)c(=O)c2cc(F)c(N3CCNCC3)nc21 [Enoxacin]
Conditions	phenotypic distance	surviving fraction
E13 [6], 4.1 nM	–	0.98
E13 [6], 12.3 nM	–	1.08
E13 [6], 37 nM	–	0.82
E13 [6], 111.1 nM	–	1.01
E13 [6], 333.3 nM	–	0.975
E13 [6], 1000 nM	–	0.96
E13 [6], 3000 nM	–	1.05
E13 [13], 4.1 nM	0.646	–
E13 [13], 12.3 nM	0.69	–
E13 [13], 37 nM	0.539	–
E13 [13], 111.1 nM	0.399	–
E13 [13], 333.3 nM	0.457	–
E13 [13], 1000 nM	0.745	–
E13 [13], 3000 nM	0.954	–
E21 [1], 4.1 nM	–	0.976
E21 [1], 12.3 nM	–	0.98
E21 [1], 37 nM	–	0.929
E21 [1], 111.1 nM	–	0.973
E21 [1], 333.3 nM	–	0.975
E21 [1], 1000 nM	–	0.987
E21 [1], 3000 nM	–	0.968
E21 [8], 4.1 nM	0.648	–
E21 [8], 12.3 nM	0.762	–
E21 [8], 37 nM	0.7	–
E21 [8], 111.1 nM	0.554	–
E21 [8], 333.3 nM	0.603	–
E21 [8], 1000 nM	0.823	–
E21 [8], 3000 nM	0.597	–
E28 [5], 4.1 nM	–	0.921
E28 [5], 12.3 nM	–	1.01
E28 [5], 37 nM	–	0.969
E28 [5], 111.1 nM	–	1.22
E28 [5], 333.3 nM	–	0.982
E28 [5], 1000 nM	–	0.962
E28 [5], 3000 nM	–	0.83
E28 [12], 4.1 nM	0.627	–
E28 [12], 12.3 nM	0.793	–
E28 [12], 37 nM	0.478	–
E28 [12], 111.1 nM	0.94	–
E28 [12], 333.3 nM	0.292	–
E28 [12], 1000 nM	0.666	–
E28 [12], 3000 nM	0.546	–
E31 [4], 4.1 nM	–	0.836
E31 [4], 12.3 nM	–	1
E31 [4], 37 nM	–	1.09
E31 [4], 111.1 nM	–	0.95
E31 [4], 333.3 nM	–	1.02
E31 [4], 1000 nM	–	1.19
E31 [4], 3000 nM	–	0.881
E31 [11], 4.1 nM	0.556	–
E31 [11], 12.3 nM	0.523	–
E31 [11], 37 nM	0.553	–
E31 [11], 111.1 nM	0.528	–
E31 [11], 333.3 nM	0.401	–
E31 [11], 1000 nM	0.654	–
E31 [11], 3000 nM	0.714	–
E34 [7], 4.1 nM	–	1.01
E34 [7], 12.3 nM	–	1.07
E34 [7], 37 nM	–	1.09
E34 [7], 111.1 nM	–	0.99
E34 [7], 333.3 nM	–	1.06
E34 [7], 1000 nM	–	1.1
E34 [7], 3000 nM	–	0.885
E34 [14], 4.1 nM	0.518	–
E34 [14], 12.3 nM	0.658	–
E34 [14], 37 nM	0.667	–
E34 [14], 111.1 nM	0.731	–
E34 [14], 333.3 nM	0.276	–
E34 [14], 1000 nM	0.843	–
E34 [14], 3000 nM	1.19	–
E57 [2], 4.1 nM	–	1
E57 [2], 12.3 nM	–	1.07
E57 [2], 37 nM	–	1.1
E57 [2], 111.1 nM	–	1.11
E57 [2], 333.3 nM	–	1.06
E57 [2], 1000 nM	–	0.938
E57 [2], 3000 nM	–	0.959
E57 [9], 4.1 nM	0.422	–
E57 [9], 12.3 nM	0.677	–
E57 [9], 37 nM	0.541	–
E57 [9], 111.1 nM	0.821	–
E57 [9], 333.3 nM	0.482	–
E57 [9], 1000 nM	0.537	–
E57 [9], 3000 nM	0.807	–
FT3469 [3], 4.1 nM	–	0.928
FT3469 [3], 12.3 nM	–	0.931
FT3469 [3], 37 nM	–	0.867
FT3469 [3], 111.1 nM	–	1.02
FT3469 [3], 333.3 nM	–	1.06
FT3469 [3], 1000 nM	–	0.928
FT3469 [3], 3000 nM	–	0.971
FT3469 [10], 4.1 nM	0.513	–
FT3469 [10], 12.3 nM	0.577	–
FT3469 [10], 37 nM	0.677	–
FT3469 [10], 111.1 nM	0.87	–
FT3469 [10], 333.3 nM	0.641	–
FT3469 [10], 1000 nM	0.47	–
FT3469 [10], 3000 nM	0.868	–

O=C(CCBr)N1CCN(C(=O)CCBr)CC1 [Pipobroman]
Conditions	phenotypic distance	surviving fraction
E13 [6], 4.1 nM	–	0.929
E13 [6], 12.3 nM	–	0.984
E13 [6], 37 nM	–	1.02
E13 [6], 111.1 nM	–	0.921
E13 [6], 333.3 nM	–	0.977
E13 [6], 1000 nM	–	0.982
E13 [6], 3000 nM	–	0.98
E13 [13], 4.1 nM	0.472	–
E13 [13], 12.3 nM	0.7	–
E13 [13], 37 nM	0.541	–
E13 [13], 111.1 nM	0.407	–
E13 [13], 333.3 nM	0.764	–
E13 [13], 1000 nM	0.638	–
E13 [13], 3000 nM	0.745	–
E21 [1], 4.1 nM	–	1.13
E21 [1], 12.3 nM	–	0.912
E21 [1], 37 nM	–	1.01
E21 [1], 111.1 nM	–	0.966
E21 [1], 333.3 nM	–	1.05
E21 [1], 1000 nM	–	0.836
E21 [1], 3000 nM	–	0.811
E21 [8], 4.1 nM	0.8	–
E21 [8], 12.3 nM	0.777	–
E21 [8], 37 nM	0.578	–
E21 [8], 111.1 nM	0.528	–
E21 [8], 333.3 nM	0.76	–
E21 [8], 1000 nM	0.889	–
E21 [8], 3000 nM	2.2	–
E28 [5], 4.1 nM	–	0.961
E28 [5], 12.3 nM	–	1.13
E28 [5], 37 nM	–	0.966
E28 [5], 111.1 nM	–	0.954
E28 [5], 333.3 nM	–	0.979
E28 [5], 1000 nM	–	0.931
E28 [5], 3000 nM	–	0.713
E28 [12], 4.1 nM	0.503	–
E28 [12], 12.3 nM	0.763	–
E28 [12], 37 nM	0.907	–
E28 [12], 111.1 nM	0.719	–
E28 [12], 333.3 nM	0.82	–
E28 [12], 1000 nM	0.794	–
E28 [12], 3000 nM	1.56	–
E31 [4], 4.1 nM	–	0.99
E31 [4], 12.3 nM	–	0.958
E31 [4], 37 nM	–	0.924
E31 [4], 111.1 nM	–	0.976
E31 [4], 333.3 nM	–	0.859
E31 [4], 1000 nM	–	0.759
E31 [4], 3000 nM	–	0.716
E31 [11], 4.1 nM	0.424	–
E31 [11], 12.3 nM	0.596	–
E31 [11], 37 nM	0.531	–
E31 [11], 111.1 nM	0.433	–
E31 [11], 333.3 nM	0.574	–
E31 [11], 1000 nM	1.19	–
E31 [11], 3000 nM	1.45	–
E34 [7], 4.1 nM	–	1.03
E34 [7], 12.3 nM	–	0.865
E34 [7], 37 nM	–	1.08
E34 [7], 111.1 nM	–	1.06
E34 [7], 333.3 nM	–	1.01
E34 [7], 1000 nM	–	0.892
E34 [7], 3000 nM	–	1.1
E34 [14], 4.1 nM	0.724	–
E34 [14], 12.3 nM	0.45	–
E34 [14], 37 nM	0.596	–
E34 [14], 111.1 nM	0.698	–
E34 [14], 333.3 nM	0.871	–
E34 [14], 1000 nM	0.646	–
E34 [14], 3000 nM	0.982	–
E57 [2], 4.1 nM	–	1.05
E57 [2], 12.3 nM	–	1.02
E57 [2], 37 nM	–	1.06
E57 [2], 111.1 nM	–	1.07
E57 [2], 333.3 nM	–	1.07
E57 [2], 1000 nM	–	0.958
E57 [2], 3000 nM	–	0.816
E57 [9], 4.1 nM	0.542	–
E57 [9], 12.3 nM	0.868	–
E57 [9], 37 nM	0.587	–
E57 [9], 111.1 nM	0.428	–
E57 [9], 333.3 nM	0.404	–
E57 [9], 1000 nM	0.464	–
E57 [9], 3000 nM	1.79	–
FT3469 [3], 4.1 nM	–	1.12
FT3469 [3], 12.3 nM	–	1.08
FT3469 [3], 37 nM	–	0.946
FT3469 [3], 111.1 nM	–	1
FT3469 [3], 333.3 nM	–	1.05
FT3469 [3], 1000 nM	–	0.961
FT3469 [3], 3000 nM	–	0.86
FT3469 [10], 4.1 nM	0.541	–
FT3469 [10], 12.3 nM	0.755	–
FT3469 [10], 37 nM	0.771	–
FT3469 [10], 111.1 nM	0.734	–
FT3469 [10], 333.3 nM	0.615	–
FT3469 [10], 1000 nM	1.02	–
FT3469 [10], 3000 nM	1.65	–
